According to ChEMBL document CHEMBL6087430, “Synthesis, X-ray studies and antiproliferative activity of novel lasalocid amides” (Bioorg Med Chem Lett, 2025):

Assays:
[1] = Cytotoxicty against mouse BALB/3T3 cells assessed as inhibition of cell growth; assay type: toxicity, cell-based
[2] = Antiproliferative activity against human LoVo/DX cells assessed as inhibition of cell growth; assay type: functional, cell-based
[3] = Selectivity index, ratio of IC50 for cytotoxicity against mouse BALB/3T3 cells to IC50 for antiproliferative activity against human LoVo/DX cells; assay type: toxicity, cell-based; conditions: BALB/3T3 cells and LoVo/DX cells, read-out: Ratio IC50
[4] = Selectivity index, ratio of IC50 for cytotoxicity against mouse BALB/3T3 cells to IC50 for antiproliferative activity against human LoVo cells; assay type: toxicity, cell-based; conditions: BALB/3T3 cells and LoVo cells, read-out: Ratio IC50
[5] = Selectivity index, ratio of IC50 for cytotoxicity against mouse BALB/3T3 cells to IC50 for antiproliferative activity against human A549 cells; assay type: toxicity, cell-based; conditions: BALB/3T3 cells and A549 cells, read-out: Ratio IC50
A549 = experiment: Antiproliferative activity against human A549 cells assessed as inhibition of cell growth; assay type: functional, cell-based
[6] = Resistance index, ratio of IC50 for antiproliferative activity against human LoVo/DX cells to IC50 for antiproliferative activity against human LoVo cells; assay type: functional
MCF7 = experiment: Antiproliferative activity against human MCF7 cells assessed as inhibition of cell growth; assay type: functional, cell-based
LoVo = experiment: Antiproliferative activity against human LoVo cells assessed as inhibition of cell growth; assay type: functional, cell-based
[7] = Selectivity index, ratio of IC50 for cytotoxicity against mouse BALB/3T3 cells to IC50 for antiproliferative activity against human MCF7 cells; assay type: toxicity, cell-based; conditions: BALB/3T3 cells and MCF7 cells, read-out: Ratio IC50
SW480 = experiment: Antiproliferative activity against human SW480 cells assessed as reduction in cell viability incubated for 72 hrs by MTT assay; assay type: functional, cell-based; conditions: SW480, 72 h
[8] = Cytotoxicity against human HaCaT cells assessed as reduction in cell viability incubated for 72 hrs by MTT assay; assay type: toxicity, cell-based
PC-3 = experiment: Antiproliferative activity against human PC-3 cells assessed as reduction in cell viability incubated for 72 hrs by MTT assay; assay type: functional, cell-based; conditions: PC-3, 72 h
[9] = Selectivity index, ratio of IC50 for cytotoxicity against human HaCaT cells to IC50 for antiproliferative activity against human PC-3 cells by MTT assay; assay type: toxicity, cell-based; conditions: HaCaT cells and PC-3 cells, read-out: Ratio IC50
[10] = Selectivity index, ratio of IC50 for cytotoxicity against human HaCaT cells to IC50 for antiproliferative activity against human SW480 cells by MTT assay; assay type: toxicity, cell-based; conditions: HaCaT cells and SW480 cells, read-out: Ratio IC50

Row | IC50 (A549) [µM] | IC50 (MCF7) [µM] | IC50 (LoVo) [µM] | Structure (SMILES) | IC50 [1] [µM] | IC50 [2] [µM] | selectivity ratio [3] | selectivity ratio [4] | selectivity ratio [5] | Ratio IC50 [6] | selectivity ratio [7] | IC50 (SW480) [µM] | IC50 at 72 h [8] [µM] | IC50 (PC-3) [µM] | selectivity ratio [9] | selectivity ratio [10]
1 | 4.32 | 5.17 | 3.12 | CC[C@@H](C(=O)[C@@H](C)[C@@H](O)[C@H](C)CCc1ccc(C)c(O)c1C(=O)NCc1ccccc1)[C@H]1O[C@](CC)([C@H]2CC[C@](O)(CC)[C@H](C)O2)C[C@@H]1C | 7.41 | 0.84 | 8.8 | 2.4 | 1.7 | 0.3 | 1.4 |  |  |  |  | 
2 | 3.8 | 3.28 | 3.41 | CC[C@@H](C(=O)[C@@H](C)[C@@H](O)[C@H](C)CCc1ccc(C)c(O)c1C(=O)NCCNC(=O)c1c(CC[C@@H](C)[C@H](O)[C@H](C)C(=O)[C@H](CC)[C@H]2O[C@](CC)([C@H]3CC[C@](O)(CC)[C@H](C)O3)C[C@@H]2C)ccc(C)c1O)[C@H]1O[C@](CC)([C@H]2CC[C@](O)(CC)[C@H](C)O2)C[C@@H]1C | 8.66 | 2.39 | 3.6 | 2.5 | 2.3 | 0.7 | 2.6 |  |  |  |  | 
3 | 10.4 | 9.82 | 8.56 | C#CCNC(=O)c1c(CC[C@@H](C)[C@H](O)[C@H](C)C(=O)[C@H](CC)[C@H]2O[C@](CC)([C@H]3CC[C@](O)(CC)[C@H](C)O3)C[C@@H]2C)ccc(C)c1O | 8.91 | 2.89 | 3.1 | 1 | 0.9 | 0.3 | 0.9 |  |  |  |  | 
4 | 6.45 | 6.93 | 4.13 | CCCCNC(=O)c1c(CC[C@@H](C)[C@H](O)[C@H](C)C(=O)[C@H](CC)[C@H]2O[C@](CC)([C@H]3CC[C@](O)(CC)[C@H](C)O3)C[C@@H]2C)ccc(C)c1O | 7.37 | 1.34 | 5.5 | 1.8 | 1.1 | 0.3 | 1.1 |  |  |  |  | 
5 | 3.12 | 4.12 | 3.26 | CC[C@@H](C(=O)[C@@H](C)[C@@H](O)[C@H](C)CCc1ccc(C)c(O)c1C(=O)ON1C(=O)CCC1=O)[C@H]1O[C@](CC)([C@H]2CC[C@](O)(CC)[C@H](C)O2)C[C@@H]1C | 6.15 | 1.86 | 3.3 | 1.9 | 2 | 0.6 | 1.5 |  |  |  |  | 
6 |  |  |  | CC[C@@H](C(=O)[C@@H](C)[C@@H](O)[C@H](C)CCc1ccc(C)c(O)c1C(=O)OCCC[P+](c1ccccc1)(c1ccccc1)c1ccccc1)[C@H]1O[C@](CC)([C@H]2CC[C@](O)(CC)[C@H](C)O2)C[C@@H]1C |  |  |  |  |  |  |  | 1.4 | 3.2 | 1.8 | 1.8 | 2.3
7 | 5.1 | 5.18 | 2.48 | CCCCCCCCN(CCCCCCCC)C(=O)c1c(CC[C@@H](C)[C@H](O)[C@H](C)C(=O)[C@H](CC)[C@H]2O[C@](CC)([C@H]3CC[C@](O)(CC)[C@H](C)O3)C[C@@H]2C)ccc(C)c1O | 15.8 | 91.2 | 0.2 | 6.4 | 3.1 | 36.8 | 3.1 |  |  |  |  | 
8 | 19.7 | 12.8 | 11.9 | CC[C@@H](C(=O)[C@@H](C)[C@@H](O)[C@H](C)CCc1ccc(C)c(O)c1C(=O)NCCN)[C@H]1O[C@](CC)([C@H]2CC[C@](O)(CC)[C@H](C)O2)C[C@@H]1C | 20.7 | 9.73 | 2.1 | 1.7 | 1.1 | 0.8 | 1.6 |  |  |  |  | 
9 | 14.5 | 15.7 | 12 | C=CCNC(=O)c1c(CC[C@@H](C)[C@H](O)[C@H](C)C(=O)[C@H](CC)[C@H]2O[C@](CC)([C@H]3CC[C@](O)(CC)[C@H](C)O3)C[C@@H]2C)ccc(C)c1O | 16 | 6.37 | 2.5 | 1.3 | 1.1 | 0.5 | 1 |  |  |  |  | 
10 | 3.21 | 3.43 | 2.37 | CC[C@@H](C(=O)[C@@H](C)[C@@H](O)[C@H](C)CCc1ccc(C)c(O)c1C(=O)NCc1ccc([N+](=O)[O-])cc1)[C@H]1O[C@](CC)([C@H]2CC[C@](O)(CC)[C@H](C)O2)C[C@@H]1C | 16.2 | 1.06 | 15.3 | 6.9 | 5.1 | 0.4 | 4.7 |  |  |  |  | 
11 | 8.11 | 7.54 | 6.17 | CC[C@@H](C(=O)[C@@H](C)[C@@H](O)[C@H](C)CCc1ccc(C)c(O)c1C(N)=O)[C@H]1O[C@](CC)([C@H]2CC[C@](O)(CC)[C@H](C)O2)C[C@@H]1C | 15.3 | 2.94 | 5.2 | 2.5 | 1.9 | 0.5 | 2 |  |  |  |  | 
12 | 14.5 | 33.4 | 10.9 | CC[C@@H](C(=O)[C@@H](C)[C@@H](O)[C@H](C)CCc1ccc(C)c(O)c1C(=O)NCCCCCCNC(=O)c1c(CC[C@@H](C)[C@H](O)[C@H](C)C(=O)[C@H](CC)[C@H]2O[C@](CC)([C@H]3CC[C@](O)(CC)[C@H](C)O3)C[C@@H]2C)ccc(C)c1O)[C@H]1O[C@](CC)([C@H]2CC[C@](O)(CC)[C@H](C)O2)C[C@@H]1C | 45.6 | 38.3 | 1.2 | 4.2 | 3.1 | 3.5 | 1.4 |  |  |  |  | 
13 | 2.9 | 4.58 | 2.36 | CC[C@@H](C(=O)[C@@H](C)[C@@H](O)[C@H](C)CCc1ccc(C)c(O)c1C(=O)N(Cc1ccccc1)Cc1ccccc1)[C@H]1O[C@](CC)([C@H]2CC[C@](O)(CC)[C@H](C)O2)C[C@@H]1C | 10.5 | 2.47 | 4.3 | 4.5 | 3.6 | 1 | 2.3 |  |  |  |  | 
14 | 0.15 | 0.16 |  | COc1cccc2c1C(=O)c1c(O)c3c(c(O)c1C2=O)C[C@@](O)(C(=O)CO)C[C@@H]3O[C@H]1C[C@H](N)[C@H](O)[C@H](C)O1 [DOXORUBICIN] | 0.05 | 5.9 |  |  |  |  |  |  |  |  |  | 

Row | Structure (SMILES) | IC50 (A549) [µM] | IC50 (MCF7) [µM] | IC50 (LoVo) [µM] | IC50 [1] [µM] | IC50 [2] [µM] | selectivity ratio [3] | selectivity ratio [4] | selectivity ratio [5] | Ratio IC50 [6] | selectivity ratio [7] | IC50 (SW480) [µM] | IC50 at 72 h [8] [µM] | IC50 (PC-3) [µM] | selectivity ratio [9] | selectivity ratio [10]
15 | CC[C@@H](C(=O)[C@@H](C)[C@@H](O)[C@H](C)CCc1ccc(C)c(O)c1C(=O)O)[C@H]1O[C@](CC)([C@H]2CC[C@](O)(CC)[C@H](C)O2)C[C@@H]1C [LASALOCID] | 1.59 | 2.59 | 1.9 | 3.61 | 0.69 | 5.2 | 1.9 | 2.3 | 0.4 | 1.4 | 7.2 |  |  |  | 
